Test results reported in patent US9387221B2, “SDF-1 binding nucleic acids and the use thereof in cancer treatment” (NOXXON Pharma AG, priority 2010, dated 2016).
{PEG40k} = 40 kDa polyethylene glycol

Key:
SDF-1 [1] = molecular target: T1, SDF-1 (Homo sapiens, UniProt P48061); assay: Inhibition of SDF-1-induced chemotaxis, BV-173 cells; assay type: cell-based; conditions: 3 nM human SDF-1
Description: The human T cell leukemia cell line Jurkat, the human leukemic monocyte lymphoma cell line U937, the human pre-B cell leukemia cell line BV-173 and human pre-B ALL cell line Nalm-6 express CXCR4. […] All cells used were obtained from the DSMZ (Braunschweig). All cell lines were cultivated at 37° C. and 5% CO2 in RPMI 1640 medium with Glutamax (Invitrogen, Karlsruhe, Germany) which contains 10% fetal bovine serum, 100 units/ml penicillin and 100 μg/ml streptomycin (Invitrogen, Karlsruhe, Germany). One day before the experiment, cells were seeded in a new T175 flask with a density of 0.3×10^6/ml (Jurkat, U937, BV-173) or 0.75×10^6/ml (Nalm-6), respectively.
For the experiment, cells were centrifuged (5 min at 300 g), resuspended, counted and washed once with 15 ml HBH (Hanks balanced salt solution containing 1 mg/ml bovine serum albumin and 20 mM HEPES; Invitrogen, Karlsruhe, Germany). Then the cells were resuspended at 1.33×10^6/ml (Jurkat, U937, BV-173) or 2.67×10^6/ml (Nalm-6), respectively. […]
For evaluation, fluorescence values were corrected for background fluorescence (no cells in well). Then the difference between experimental conditions with and without SDF-1 was calculated. The value for the sample without Spiegelmer (SDF-1 only) was set 100% and the values for the samples with Spiegelmer were calculated as percent of this. […]
Target sequence in this assay (P48061 22-89): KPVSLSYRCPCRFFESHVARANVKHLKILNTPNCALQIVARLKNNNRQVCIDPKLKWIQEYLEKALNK

stromal MS-5 cells = assay: Viability of stromal MS-5 cells in the coculture; assay type: cell-based, murine
Description: The murine stromal cell line MS-5 (ACC 441) was purchased from the DSMZ, the Multiple Myeloma cell line RPMI8226 (CCL-155) was purchased from the ATCC. The Multiple Myeloma cell line RPMI8226 was maintained in RPMI medium 1640 GlutaMAX (Invitrogen) supplemented with 10% FBS (Biochrom) and penicillin-streptomycin, the MS-5 cells were cultured in MEM alpha GlutaMAX (Invitrogen) with 10% FBS and penicillin-streptomycin. For chemosensitization coculture experiments stromal MS-5 cells were seeded the day before onto 24-well plates (the inner eight wells) at a concentration of 8×10^4/mL/well in MEM alpha GlutaMAX medium (+10% FBS) and incubated at 37° C. in 5% CO2. The confluent stromal cell layer was washed and 0.5 mL RPMI medium 1640 (+1% FBS) was added to the wells. SDF-1 binding […] NOX-A12 or revNOX-A12 was subsequently added to the wells to a final concentration of 100 nM and incubated for four hours. 3.5×10^5 RPMI8226 cells in RPMI medium 1640 (+1% FBS) were added to the stromal cell layer. Four hours later, 1 μ[…] (Sigma Aldrich) was added to the cells when indicated. After 40 hours of incubation the cells were collected in 15 mL tubes, first the supernatant was harvested and then the attached cells were trypsinized including MS-5 cells. […] Cell viability and cell number were determined by Flow Cytometry using the Guava EasyCyte 6HT/2L (Millipore).

[2] = test system: SDF-1 dose-dependent adhesion of Jurkat cells to fibronectin; assay: Adhesion of Jurkat cells to fibronectin; assay type: cell-based, human; conditions: SDF-1 plus increasing concentrations of Spiegelmer
Description: The T cell leukemia Jurkat (ACC 282) were purchased from the DSMZ were maintained in RPMI medium 1640 GlutaMAX (Invitrogen) supplemented with 10% FBS (Biochrom) and penicillin-streptomycin. For the adhesion experiments 96-well culture plates were incubated with 10 μg/mL human fibronectin (R&D systems) in PBS for 2 hours at 37° C. […] The wells were then washed with RPMI medium. Jurkat cells from logarithmic growth phase were washed with RPMI medium (+0.1% BSA) and incubated with various concentrations of human SDF-1 (R&D systems) and NOX-A12 for 15 minutes at 37° C. NOX-A12 and SDF-1 were preincubated for 30 minutes. lx 105 stimulated Jurkat cells were seeded to the Fibronectin-coated 96-well plates and incubated for 30 minutes. The plates were then washed five times with RPMI medium. Attached cells were quantified by using Cell Titer Glo Reagent (Promega). Therefor, 50 μL RPMI medium was added to each well, followed by 50 μL of Cell Titer Glo Reagent. The plates were mixed for two minutes, followed by incubation at room temperature for 10 minutes. Cell number was quantified by relative luminescence signal.

Human CXCR7 = assay: CXCR7 β-arrestin complementation assay (PathHunter), CHO cells; assay type: cell-based; conditions: 10 nM human SDF-1, 90 minutes; read-out: IC50, CXCR7 activation (β-galactosidase)
Description: Besides CXCR4, SDF-1 also binds to the chemokine receptor CXCR7. The inhibitory potential of SDF-1-binding Spiegelmer NOX-A12 towards CXCR7 was tested in a complementation assay with CHO cells stably expressing CXCR7 and β-arrestin both fused to a fragment of β-galactosidase (PathHunter™—β-arrestin assay, DiscoveRX, CA, USA). Upon SDF-1 binding β-arrestin complexed with CXCR7 and thus led to complementation and activation of the β-galactosidase which was measured with a chemiluminescence substrate.
PathHunter eXpress CHO-K1 Human CXCR7 β-arrestin cells were plated for 48 hours in OCC2 Medium and stimulated with 10 nM SDF-1 and various concentrations of SDF-1-binding Spiegelmer NOX-A12 for 90 minutes. Following stimulation, signal was detected using the PathHUnter Detection Kit and the manufacturer's recommended protocol (DiscoveRX, CA, USA).

SDF-1 [3] = molecular target: T1, SDF-1; assay: SDF-1 dependent chemotaxis of primary chronic lymphocytic leukemia cells; assay type: cell-based
Target sequence in this assay (P48061 22-89 limits assumed): as the sequence (P48061 22-89) above

## 5′-40 kDa-PEG-GCGUGGUGUGAUCUAGAUGUAUUGGCUGAUCCUAGUCAGGUACGC (5' {PEG40k}, sugars by position and backbone not given here) [NOX-A12]
SDF-1 [1]
  inhibition of SDF-1 induced chemotaxis: Inhibition
Stromal MS-5 cells
  viability of stromal MS-5 cells: neither affected
[2]
  reversal of SDF-1 effect on adhesion of Jurkat cells to fibronectin: reverse this effect
Human CXCR7
  IC50: 5.4 nM
SDF-1 [3]
  block of SDF-1 dependent chemotaxis: effectively blocked
